Measured values published in patent US20220193068A1, “A GRK2 PROTEIN INHIBITOR COMPOUND AND A PHARMACEUTICAL COMPOSITION COMPRISING THE SAME” (CONSEJO NACIONAL DE INVESTIGACIONES CIENTÍFICAS Y TÉCNICAS …, priority 2019, published 2022).

Key:
[1] = biological target: T1, RGS domain of GRK2 (GRK2-K220R variant) (Bos taurus, UniProt P21146, K220R); test: cAMP response of rH2 to amthamine in HEK293 clones overexpressing rH2 and GRK2-K220R; type: cell-based; conditions: 40 min pretreatment, C2-C5 at 10 μM or 100 μM, L96B at 100 nM or 1 μM, 10 μM amthamine, *p<0.05
T1 construct: expressed in transfected cells
T1 sequence (P21146 1-689 K220R): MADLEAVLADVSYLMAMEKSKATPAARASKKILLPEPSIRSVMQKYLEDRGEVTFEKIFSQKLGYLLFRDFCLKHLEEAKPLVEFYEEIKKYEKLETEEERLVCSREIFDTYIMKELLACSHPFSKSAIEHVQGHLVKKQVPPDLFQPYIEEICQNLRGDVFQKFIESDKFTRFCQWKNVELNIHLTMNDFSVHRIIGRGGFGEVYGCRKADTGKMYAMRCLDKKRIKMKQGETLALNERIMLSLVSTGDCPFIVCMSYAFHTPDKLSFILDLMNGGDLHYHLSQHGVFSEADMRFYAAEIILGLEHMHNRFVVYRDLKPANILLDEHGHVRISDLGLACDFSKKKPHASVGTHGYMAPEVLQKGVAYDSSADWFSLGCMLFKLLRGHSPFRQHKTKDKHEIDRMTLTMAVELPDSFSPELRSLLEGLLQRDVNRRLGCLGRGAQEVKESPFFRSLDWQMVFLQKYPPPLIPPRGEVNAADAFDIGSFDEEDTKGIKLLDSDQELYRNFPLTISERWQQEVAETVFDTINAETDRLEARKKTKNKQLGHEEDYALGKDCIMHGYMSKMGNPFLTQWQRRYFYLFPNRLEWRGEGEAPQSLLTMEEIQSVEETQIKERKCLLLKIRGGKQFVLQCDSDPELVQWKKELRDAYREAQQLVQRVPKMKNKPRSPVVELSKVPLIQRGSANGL
From the text: In order to assess the effect of inhibitors of the RGS domain of GRK2, a cell model derived from HEK293 transfected cells was obtained. Such cells overexpress the histamine H2 receptor (rH2), a G-protein coupled receptor (GPCR) of the Gs type that, when activated, promotes cAMP synthesis and which is inactivated by regulatory domain-mediated desensitization of G-protein stimulation (RGS) of GRK2. The clone obtained not only overexpresses rH2 but also overexpresses a negative dominant mutant of GRK2, the GRK2-K220R variant, which cannot phosphorylate GPCRs but can inactivate them through its RGS domain. In this system, the desensitizing effect of the RGS domain of GRK2 on the cAMP response of rH2 is evident.
Clones derived from HEK293 cells were obtained by stable and sequential transfection with pcDNA3.1Zeo(+)-HARH2 and pcDNA3-GRK2K22OR plasmids using K2 Transfection System (BIONTEX) reactive, following manufacturer's instructions and using, for a 35 mm diameter plate, a mixture A of 2.7 μg of total DNA and 150 μl of DMEM base and a mixture B of 6 μl of K2 transfection reactive and 150 μl of base DMEM. The following day, cells were plated in 96-well plates with 0.3 ml of complete DMEM per well. For clone selection, cells were incubated in selection agent-supplemented medium (50 μg/ml Zeocine or 1.2 mg/ml geneticin), following a limit dilution protocol. According to this protocol, cells were counted and plated performing serial dilutions, so as to obtain wells with con 1000, 100, 10 and 1 cell. The medium was renewed every other day by replacing 100 μl in each well with 100 μl of fresh medium of the same composition. After three weeks, several antibiotic-resistant clones were selected and afterwards plasmid expression was analyzed by Western blot.
Adhered clones were maintained in a humidified-atmosphere oven, with 5% CO2 at 37° C., in 10% FBS-supplemented DMEM medium, 50 μg/ml gentamicin, 0.8 mg/ml geneticin and 50 μg/ml zeocin. Cells were passed by adding 0.05% trypsin solution and 0.3 mM EDTA.
In order to assess the effect of GRK2 inhibitor compounds, clones were plated in 48-well plates at 50% confluence. […]
Next, cells were incubated for 3 min with 1 mM IBMX, a phosphodiesterase inhibitor that prevents degradation of the cAMP produced and afterwards the rH2-Gαs-adenylate-cyclase-cAMP signaling route was stimulated for 9 minutes with the rH2-specific agonist, amthamine, at a 10 μM concentration. […] This was evaporated and cAMP levels were determined.
cAMP in samples was quantified by adapting the linking protein-binding technique according to Davio et al, 1995.

[2] = system: GRK2K220R/R106A (mutated RGS domain); test: Selectivity control: cAMP response of rH2 in HEK293 clones overexpressing rH2 and GRK2K220R/R106A; type: cell-based; conditions: 10 μM amthamine, no significant differences
Protocol: In order to assess specificity of the effect of compounds over RGS domain of GRK2, assays were carried out in a second system that overexpresses rH2 and GRK2K220R/R106A, a GRK2 double mutant negative dominant construct that lacks both kinase activity and desensitization action through RGS domain. […] The R106A mutation that inactivates the RGS domain is redundant to the effect of an inhibitory potential, thus constituting the selectivity control of the model and allowing to determine if the enhancement in the receiver response occurred as a result of an inhibition of the RGS domain, or if it was the result of a non-specific action of the compound on an unwanted target. Those compounds that also raise cAMP levels in this control system are considered to be of non-specific action.
Since the latter mutation is redundant to the effect of a potential inhibitor of RGS domain of GRK2, this system allows us to discern whether the enhancement in the rH2 response occurred as a result of an RGS domain inhibition, or whether it resulted from a non-specific action of the compound on an unwanted target.

HEPG2 cell line [3] = system: HEPG2 cell line
Protocol: (§1) Since hepatotoxicity is one of the main forms of toxicity in which drugs affect the body, the cytotoxicity of inhibitors was assessed using the human hepatocyte HEPG2 cell line.
(§2) Cells were plated in a 96-well plate at a 22,000 cell/well density and incubated for 48 hours with the compounds in a concentration range of between 0.33 μM and 200 μM. Afterwards, their viability was analyzed through trypan blue exclusion method and counted in Neubauer camera.

HEPG2 cell line [4] = test: Viability of human hepatocyte HEPG2 cells, trypan blue exclusion; conditions: 48 hours, 0.33 μM to 200 μM, versus DMSO control, C2 effect as from 10 μM
Protocol: as §1, §2

SMILES | effect on H2 receptor capacity of response (cAMP) [1] | effect over rH2 capacity of response (cAMP) with GRK2 mutated in the RGS domain [2] | EC50 (HEPG2 cell line [3]) [µM] | melting point [°C] | cytotoxicity / cell viability (HEPG2 cell line [4])
CC(=O)N1CCc2cc(NC(=O)Nc3cccc4cccnc34)ccc21 [C2, 3-(1-acetyl-2,3-dihydro-H-indol-5-yl)-1-(quinoline-8-yl)urea] | enhancing effect | lack of effect | 10.3 | – | –
Cc1ccc2cc(C(=O)Nc3cccc(-c4nnco4)c3)c(C)nc2c1 [C3, 2,7-dimethyl-N-[3-(1,3,4-oxadiazol-2-yl)phenyl] quinoline-3-carboxamide] | enhancing effect | lack of effect | – | – | –
O=C(CCc1ccc2ccccc2c1)N1CCCC(n2cccn2)C1 (centres unmarked) [C4, 3-(naphtalen-2-yl)-1-[3-(1H-pyrazol-1-yl)piperidin-1-yl]propan-1-one] | enhancing effect | lack of effect | – | – | –
O=C(Cc1n[nH]c(=O)c2ccccc12)Nc1cccc2ncccc12 [C5, 2-(4-oxo-3,4-dihydrophthalazin-1-yl)-N-(quinoline-5-yl)acetamide] | enhancing effect | lack of effect | – | – | –
O=C(Nc1ccc(-c2nnco2)cc1)c1cnc2ccccc2c1 [L94C, N-[4-(1,3,4-oxadiazol-2-yl)phenyl]quinoline-3-carboxamide] | – | – | – | 202 | –
COC(=O)c1ccc(NC(=O)c2ccc3ccccc3c2)cc1 [L96B, methyl 4-(naphthalene-2-amido)benzoate] | – | – | – | – | did not affect cell viability
